Experimental data reported in ChEMBL document CHEMBL4431371, “Targeting the Cystic Fibrosis Transmembrane Conductance Regulator (CFTR) Protein for the Treatment of Cystic Fibrosis” (ACS Med Chem Lett, 2016).

How the values were obtained:
[1] = system: Cystic fibrosis transmembrane conductance regulator (Homo sapiens), P13569 [F508del]; test: (§1) Corrector activity at CFTR F508del mutant (unknown origin) expressed in human CFBE41o cells incubated for 18 to 24 hrs by CSE-HRP assay; type: cell-based
[2] = molecular target: T1, Cystic fibrosis transmembrane conductance regulator (Homo sapiens, UniProt P13569, F508DEL); test: as §1; type: cell-based
[3] = system: Cystic fibrosis transmembrane conductance regulator (Homo sapiens), P13569 [F508del]; test: (§2) Corrector activity at CFTR F508del mutant in human bronchial epithelial cells incubated for 18 to 24 hrs by TECC-based conductance assay
[4] = molecular target: T1, Cystic fibrosis transmembrane conductance regulator; test: as §2

Chain of Cystic fibrosis transmembrane conductance regulator (Homo sapiens), P13569 [F508del] (P13569 as listed by the source): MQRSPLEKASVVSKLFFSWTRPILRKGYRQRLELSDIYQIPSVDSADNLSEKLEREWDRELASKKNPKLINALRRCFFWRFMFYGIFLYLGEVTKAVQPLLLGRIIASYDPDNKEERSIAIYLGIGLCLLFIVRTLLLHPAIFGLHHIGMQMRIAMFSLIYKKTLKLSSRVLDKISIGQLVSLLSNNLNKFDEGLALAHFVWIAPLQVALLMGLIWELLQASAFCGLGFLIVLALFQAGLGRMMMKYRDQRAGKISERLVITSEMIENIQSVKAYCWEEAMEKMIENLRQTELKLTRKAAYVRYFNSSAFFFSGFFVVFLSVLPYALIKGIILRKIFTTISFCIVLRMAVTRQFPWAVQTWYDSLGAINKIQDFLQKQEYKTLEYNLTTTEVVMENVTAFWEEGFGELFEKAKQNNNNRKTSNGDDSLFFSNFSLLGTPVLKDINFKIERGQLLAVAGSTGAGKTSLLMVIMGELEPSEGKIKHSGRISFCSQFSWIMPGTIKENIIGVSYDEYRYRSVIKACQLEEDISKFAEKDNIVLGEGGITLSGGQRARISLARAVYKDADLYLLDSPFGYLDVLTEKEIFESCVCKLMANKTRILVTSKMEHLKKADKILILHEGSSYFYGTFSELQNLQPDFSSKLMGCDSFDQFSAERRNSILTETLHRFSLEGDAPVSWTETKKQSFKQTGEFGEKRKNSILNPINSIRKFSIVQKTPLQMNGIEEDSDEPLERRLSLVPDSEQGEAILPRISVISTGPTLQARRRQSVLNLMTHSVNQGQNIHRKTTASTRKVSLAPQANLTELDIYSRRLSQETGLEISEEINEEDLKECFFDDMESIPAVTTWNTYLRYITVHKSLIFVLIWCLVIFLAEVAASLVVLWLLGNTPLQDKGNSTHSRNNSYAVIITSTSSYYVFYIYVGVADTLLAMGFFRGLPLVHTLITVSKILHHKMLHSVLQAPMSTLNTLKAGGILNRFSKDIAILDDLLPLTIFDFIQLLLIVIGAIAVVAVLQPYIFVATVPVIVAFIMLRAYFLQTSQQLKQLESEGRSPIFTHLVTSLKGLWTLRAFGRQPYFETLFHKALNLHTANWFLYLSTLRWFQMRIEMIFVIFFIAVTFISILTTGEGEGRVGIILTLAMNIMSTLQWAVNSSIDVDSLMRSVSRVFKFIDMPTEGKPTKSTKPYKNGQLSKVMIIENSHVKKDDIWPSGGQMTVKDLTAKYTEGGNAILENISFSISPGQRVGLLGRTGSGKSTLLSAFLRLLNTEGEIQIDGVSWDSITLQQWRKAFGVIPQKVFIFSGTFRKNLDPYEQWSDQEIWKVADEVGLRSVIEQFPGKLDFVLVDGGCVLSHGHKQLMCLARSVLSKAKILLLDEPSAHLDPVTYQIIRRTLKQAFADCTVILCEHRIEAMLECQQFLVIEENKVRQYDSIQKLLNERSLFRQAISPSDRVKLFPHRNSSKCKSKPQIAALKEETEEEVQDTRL
T1 sequence (P13569 as listed by the source): as above

SMILES | max activation [1] [%] | EC50 [2] [nM] | max activation [3] [%] | EC50 [4] [nM]
O=C(O)c1ccc([C@H]2C[C@@H](NC(=O)C3(c4ccc5c(c4)OC(F)(F)O5)CC3)C[C@@H](c3ccccc3)O2)cc1 | 81 | 300 | 73 | 260
O=C(O)c1cccc([C@H]2C[C@@H](NC(=O)C3(c4ccc5c(c4)OC(F)(F)O5)CC3)CCO2)c1 (racemic) | 71 | 850 |  | 
O=C(O)c1cccc([C@H]2C[C@@H](NC(=O)C3(c4ccc5c(c4)OC(F)(F)O5)CC3)C[C@@H](c3ccccc3)O2)c1 | 109 | 280 | 94 | 100
CCOC(=O)c1cc(C)cc([C@H]2C[C@@H](NC(=O)C3(c4ccc5c(c4)OC(F)(F)O5)CC3)C[C@@H](c3ccccc3)O2)c1 (racemic) | 106 | 1160 |  | 
O=C(O)c1ccc([C@H]2C[C@@H](NC(=O)C3(c4ccc5c(c4)OC(F)(F)O5)CC3)CCO2)cc1 (racemic) | 113 | 2860 | 73 | 1340
O=C(O)c1cccc([C@@H]2C[C@H](NC(=O)C3(c4ccc5c(c4)OC(F)(F)O5)CC3)C[C@H](c3ccccc3)O2)c1 | 16 | 20000 |  | 
